Like-named read-outs stand apart in the source and are kept apart here.

The subject of assay [1] is HT29 cells. The assay is described as follows: MTT cell viability assay, HT29. It counts as cell-based, human. The note with it: for inhibition at 150 µM: Homo sapiens, HT-29, 150 μM (5 FU at a similar concentration), read-out: inhibition of HT29 cell growth (MTT); for effect on HT29 cells (MTT): similar concentrations and incubation times as As-P (24 and 48 hours). The procedure:
(§1) HT-29, a human colon adenocarcinoma cell line, and CCD 18, a normal colon fibroblast, were obtained from the American Type Culture Collection (Rockville, Md.). The cells were grown in RPM1 1640 medium containing HEPES (20 mM), fetal bovine serum (10%), sodium bicarbonate (1 g/L), and penicillin (10 U/ml), streptomycin (10 ug/ml) at 37° C. in 5% CO2 humidified atmosphere.
(§2) The effect of various concentrations of As-P, ascorbate, palmitate or 5-fluorouracil (5 FU) on the viability and/or proliferation of HT29 or CCD 18 cells were evaluated. Cells were seeded in 96-well culture plates at 1×10^4 cells/well. The following day, As-P, ascorbate, palmitate or 5 FU were added at various concentrations. Cell viability was evaluated by the MTT assay 24 hours or 48 hours after the addition of the compounds. The effect of As-P on the cell cycle of HT29 cells was also investigated by flow cytometry.

The test system of a further assay is CCD 18 cells. The assay is described as follows: MTT cell viability assay, CCD 18. Type of assay: cell-based, human. Particulars: for inhibition at 150 µM: Homo sapiens, Fibroblast, read-out: inhibitory effect on CCD 18 fibroblasts (MTT); for effect on CCD18 fibroblasts (MTT): similar concentrations and incubation times as As-P (24 and 48 hours). The procedure:
as §1, §2
In general terms: Tetrazolium dyes change colour on reduction, which living cells bring about.

For another assay, the system named is Advanced colon cancer. The note with it: single agent; cited from earlier work.
The subject of assay [2] is HT29 cells. Description: Cell cycle analysis by flow cytometry, HT29. Type of assay: cell-based, human. Particulars: 24 hours. The procedure:
HT29 cells were seeded into 25 cm^2 flasks at a density of 1×10^4 cells/ml. 72 hours after seeding, As-P was added to HT29 cells in culture at a final concentration of 50 μM, 100 μM, 150 μM. Control cells received medium only. After 24 hours of incubation, cells were harvested and processed for flow cytometry DNA analysis.

With `O=c1[nH]cc(F)c(=O)[nH]1` [5 FU, 5-Fluorouracil, reference compound], in the assay with HT29 cells [1] (24 hours), the “effect on growth of HT29 cells at 24 hours” value is reported as “little or no inhibitory effect” and the inhibition at 150 µM was found to be 14%. In the assay with HT29 cells [1] (48 hours, concentration not given), the “inhibition of growth of HT29 cells at 48 hours” value is listed as “approximately 40%”. In the assay on HT29 cells [1] (48 hours), the inhibition at 150 µM was found to be 40%. Also, the “effect on growth of CCD 18 fibroblasts at 24 hours” value with CCD 18 cells (24 hours) is “little or no inhibitory effect”. Moreover, the “effect on CCD 18 cells at 48 hours” value with CCD 18 cells (48 hours) was “little effect”. In addition, the response rate with Advanced colon cancer is reported as 10-20%.

Regarding `CCCCCCCCCCCCCCCC(=O)OC[C@H](O)[C@H]1OC(=O)C(O)=C1O` [As-P, L-Ascorbyl 6-palmitate], the inhibition at 150 µM with HT29 cells [1] (24 hours) was 73%; in the assay on HT29 cells [1] (48 hours), 89%; in the assay with CCD 18 cells (24 hours) it was around 20%; in the assay on CCD 18 cells (48 hours), around 20%. For the same compound, the “effect on HT29 cells at higher concentrations” value in the assay on HT29 cells [1] (above 100 μM) was “cytotoxic effect”. The “effect on HT29 cell growth at lower concentrations” value in the assay on HT29 cells [1] (below 100 μM) is given as “stimulatory effect”. The “effect on HT29 cell growth” value with HT29 cells [1] (higher concentrations (>125 μM)) was “great inhibitory effect”; in the assay on HT29 cells [1] (lower concentrations (<75 μM)) it was “slight stimulating effect”. In the assay on CCD 18 cells (lower concentrations), the “effect on CCD 18 fibroblasts at lower concentrations” value is recorded as “stimulatory effect”. For the same compound, the “% G2 + M” value in the assay with HT29 cells [2] (HT29, 50 μM As-P) was found to be 7.8%; in the assay with HT29 cells [2] (HT29, 100 μM As-P), 4.3%; with HT29 cells [2] (HT29, 150 μM As-P), 3.2%. In addition, the “% G4/G1” value with HT29 cells [2] (HT29, 50 μM As-P) turned out to be 57.1%; with HT29 cells [2] (HT29, 100 μM As-P), 73.1%; in the assay on HT29 cells [2] (HT29, 150 μM As-P), 86.1%. In addition, the “% S” value in the assay with HT29 cells [2] (HT29, 50 μM As-P) is recorded as 35.1%; with HT29 cells [2] (HT29, 100 μM As-P) it was 22.6%; with HT29 cells [2] (HT29, 150 μM As-P), 10.7%.

As for `O=C1O[C@H]([C@@H](O)CO)C(O)=C1O` [ascorbate, reference compound], the “effect on HT29 cells (MTT)” value in the assay on HT29 cells [1] is listed as “no inhibitory effect”. In addition, in the assay on CCD 18 cells, the “effect on CCD18 fibroblasts (MTT)” value is listed as “no inhibitory effect”.

Regarding `CCCCCCCCCCCCCCCC(=O)O` [palmitate, reference compound], the “effect on HT29 cells (MTT)” value in the assay on HT29 cells [1] was “no inhibitory effect”. The “effect on CCD18 fibroblasts (MTT)” value with CCD 18 cells was “no inhibitory effect”.

The record behind these values is patent publication US6638974B1, “Ascorbyl esters for the treatment of cancer” (University of South Florida, priority 1999, dated 2003).
